# Results reported in patent publication US20060009524A1, “Methods for producing D-beta-hydroxyamino acids” (priority 2004, published 2006).
# Like-named read-outs stand apart in the source and are kept apart here.
# Experiments:
# L-phenylserine aldolase [1] = experiment: Effect of cations on the activity of L-phenylserine aldolase; format: biochemical, Pseudomonas putida biovar A24-1 strain; details: for activation of the enzyme by cation (in words): monovalent or divalent cations
# L-phenylserine aldolase [2] = experiment: Substrate specificity of purified L-phenylserine aldolase under the standard assay conditions; details: compound as substrate; for Relative activity: activity to DL-threo-β-phenyl serine taken as 100, purified enzyme, standard assay conditions
# L-phenylserine aldolase [3] = format: biochemical, Pseudomonas putida biovar A24-1 strain; details: compound as substrate
# Description: E. coli JM109 strain was transformed with the plasmid pKK-PSA1 obtained in Example 4. The resulting transformant was inoculated to liquid LB medium (Bacto-tryptone 10 g/l, Bacto-yeast extract 5 g/l, sodium chloride 10 g/l; pH 7.2) containing ampicillin (50 mg/l), and cultured at 30° C. overnight. Then, an aliquot of the culture was inoculated to 2×YT medium (Bacto-tryptone 20 g/l, Bacto-yeast extract 10 g/l, sodium chloride 10 g/l; pH 7.2) containing ampicillin (50 mg/l). The bacterial cells were cultured at 30° C., and then the induction was achieved by treating the cells with 0.1 mM IPTG for 4 hours. The bacterial cells were harvested by centrifugation. The cells were suspended in 100 mM TES-NaOH buffer (pH 7.2) containing 0.02% 2-mercaptoethanol, 2 mM EDTA, and 20 μM pyridoxal-5′-phosphate. The cell suspension was sonicated in a closed sonicator UCD-200™ (Cosmo Bio) for 3 minutes to lyse the bacterial cells. The bacterial cell lysate was centrifuged and the resulting supernatant was used as cell-free extract. The activity of L-phenylserine aldolase was assayed using the cell-free extract. The specific activity was confirmed to be 20.0 U/mg.
# When the activity to DL-threo-phenyl serine was taken as 100%, the relative activity was estimated to be 31.3%.
# [4] = compound 0.1 mM, preincubated with enzyme at 30° C. for 10 minutes, […]
# [5] = compound 0.1 mM, preincubated with enzyme at 30° C. for 10 minutes, activity in the absence of cation taken as 100
# [6] = compound 50 mM, preincubated with enzyme at 30° C. for 10 minutes, […]
molecule,measurement,setting,value
[Cl][Co][Cl] [Cobalt chloride],Relative activity,L-phenylserine aldolase [1]; [4],98%
[Ba+2].[Cl-].[Cl-] [Barium chloride],Relative activity,L-phenylserine aldolase [1]; [5],90%
N[C@@H](C(=O)O)[C@H](O)c1ccccc1 [D-erythro-phenyl serine],activity to the compound,L-phenylserine aldolase [2],undetectable
N [ammonium ion],activation of the enzyme by cation (in words),L-phenylserine aldolase [1],not activated
NCC(O)c1ccccc1 (racemic) [DL-β-hydroxyphenylethylamine],Relative activity,L-phenylserine aldolase [2],0
[K+] [potassium ion],activation of the enzyme by cation (in words),L-phenylserine aldolase [1],not activated
O=C(O)[C@@H](O)Cc1ccccc1 [L-phenyllactic acid],Relative activity,L-phenylserine aldolase [2],0
C[C@H](O)[C@H](N)C(=O)O [L-allo-threonine],enzymatic activity to the compound (in words),L-phenylserine aldolase [2],low enzymatic activity
same,Relative activity,L-phenylserine aldolase [2],8
O=S(=O)([O-])[O-].[Cu+2] [Copper sulfate],Relative activity,L-phenylserine aldolase [1],89%
DL-β-thienyl serine,Relative activity,L-phenylserine aldolase [2],170
N[C@@H](C(=O)O)[C@@H](O)c1ccccc1 (racemic) [DL-threo-β-phenyl serine],Relative activity,L-phenylserine aldolase [2],100
[Mn+2] [manganese ion],activation of the enzyme by cation (in words),L-phenylserine aldolase [1],not activated
N[C@@H](C(=O)O)[C@H](O)c1ccccc1 (racemic) [DL-erythro-β-phenyl serine],Relative activity,L-phenylserine aldolase [2],130
[Cl-].[Cl-].[Zn+2] [Zinc chloride],Relative activity,L-phenylserine aldolase [1]; [4],92%
Cl.N [Ammonium chloride],Relative activity,L-phenylserine aldolase [1]; [6],92%
N[C@@H](CO)C(=O)O [L-serine],enzymatic activity to the compound (in words),L-phenylserine aldolase [2],almost no activity
same,Relative activity,L-phenylserine aldolase [2],0
Manganese chloride,Relative activity,L-phenylserine aldolase [1]; [5],92%
O=S(=O)([O-])[O-].[Fe+2] [Ferric (II) sulfate],Relative activity,L-phenylserine aldolase [1],91%
[Cl-].[Na+] [Sodium chloride],Relative activity,L-phenylserine aldolase [1]; [6],88%
C[C@@H](O)[C@H](N)C(=O)O [L-threonine],enzymatic activity to the compound (in words),L-phenylserine aldolase [2],low enzymatic activity
same,Relative activity,L-phenylserine aldolase [2],2.1
C[C@@H](O)[C@@H](N)C(=O)O [D-allo-threonine],Relative activity,L-phenylserine aldolase [2],0
N[C@H](CO)C(=O)O [D-serine],Relative activity,L-phenylserine aldolase [2],0
[Cl-].[Cl-].[Mg+2] [Magnesium chloride],Relative activity,L-phenylserine aldolase [1],98%
N[C@@H](C(=O)O)[C@@H](O)c1ccccc1 [D-threo-phenyl serine],activity to the compound,L-phenylserine aldolase [2],undetectable
N[C@@H](C(=O)O)[C@H](O)C1CCCCC1 (racemic),Relative activity,L-phenylserine aldolase [3]; activity to DL-threo-phenyl serine taken as 100%,31.3%
same,enzymatic activity to the substrate,L-phenylserine aldolase [3]; cell-free extract of Example 5,6.26 U/mg
CCC(O)C(N)C(=O)O (racemic) [DL-β-hydroxynorvaline],Relative activity,L-phenylserine aldolase [2],0
[Cl-].[K+] [Potassium chloride],Relative activity,L-phenylserine aldolase [1]; [6],94%
C[C@H](O)[C@@H](N)C(=O)O [D-threonine],Relative activity,L-phenylserine aldolase [2],0
